Tested on: ApoE KO mice fed a Western diet
Assay: Plasma and liver sphingomyelin by LC/MS, 4 weeks
Format: in vivo
Experimental: Animal experiments—Male C57BI/6J and ApoE KO mice on C57BI/6J background were obtained from the Jackson Laboratory (Bar Harbor, Me.) or Taconic (Germantown, N.Y.) (Plaque formation in ApoE KO mice is lipid-driven (A. S. Plump et al., Cell. 1992;71 (2):343-53)). Myriocin was mixed with Western diet containing 0.21% cholesterol and 21% fat. 8-12-week-old mice received 0.3 mg myriocin/kg/day for 12 weeks (Table 1). 10-12 week-old ApoE KO mice (n=8) were pre-fed a western diet for 2 weeks and mice received various concentrations of myriocin for 4 weeks in diet admix. Control groups consisted of ApoE KO mice fed normal chow or Western diet without myriocin, and normal chow-fed C57BI/6J mice. Body weight and chow feeding was measured every week to examine the food consumption. For the femoral artery cuff model, 8-10 week-old male ApoE KO mice were anethetized and the right femoral artery was dissected from its surroundings. […]
Analysis of Sphingolipids and Phospholipids by LC/MS and HPLC—Total lipids were extracted by the modified method of Bligh-Dyer extraction (E. G. Bligh and W. J. Dyer, Can. J. Med. Sci. 1959;37:911-917; and D. K. Perry, A. Bielawska and Y. A. Hannun, Methods Enzymol. 2000;312:22-31). A Micromass (Waters Corp., Milford, Mass.) Quattro Ultima tandem quadrupole mass spectrometer with a standard Z-spray™ ion source, set to electrospray positive ionization mode, with MassLynx™ version 3.5 operating software, was used for all quantitative determinations. […] The following ion transitions were used for quantification: sphingomyelin (704→184 m/z), sphinganine (302→284 m/z), ceramide (566→264 m/z) and psychosine (462→282 m/z) as an internal standard. […]
The liquid chromatography system was composed of twin Shimadzu (Columbia, Md.) LC-10ADvp HPLC pumps with a SCL-10Avp controller (flow rate 0.2 mL/minute), and a LEAP Technologies (Carrboro, N.C.) CTC PAL autosampler. For the quantitative method, the analytical column was a Phenomenex (Torrance, Calif.) Polar-RP (2.0×150 mm, 4 μm) with a MetaChem (Torrance, Calif.) MetaGuard Polaris C8 2.0 mm direct connect (5 μm) guard column. […]

CCCCCCC(=O)CCCCCC/C=C/C[C@@H](O)[C@H](O)[C@@](N)(CO)C(=O)O [myriocin] was tested, and the “liver SM levels decreased, maximum” value (0.1 mg/kg/day) was 46%, the “liver SM levels” value (1 mg/kg/day) was “comparable to the non-treated group” and the “plasma SM levels lowered (LC/MS)” value (1 mg/kg/day) was 70%.

— patent US20080027088A1, “Imidazole-Based Hmg-Coa Reductase Inhibitors” (Warner-Lambert Company, LLC, priority 2004, published 2008)
